Reference: ChEMBL document CHEMBL1135549 (J Med Chem, 2002)

Key:
Cannabinoid receptor 2 = target: T1, Cannabinoid receptor 2 (Rattus norvegicus, UniProt Q9QZN9); test: Displacement of [3H]CP-55940 from rat forebrain membrane which expresses Cannabinoid receptor 2 in the presence of PMSF
T1 sequence (Q9QZN9 whole entry): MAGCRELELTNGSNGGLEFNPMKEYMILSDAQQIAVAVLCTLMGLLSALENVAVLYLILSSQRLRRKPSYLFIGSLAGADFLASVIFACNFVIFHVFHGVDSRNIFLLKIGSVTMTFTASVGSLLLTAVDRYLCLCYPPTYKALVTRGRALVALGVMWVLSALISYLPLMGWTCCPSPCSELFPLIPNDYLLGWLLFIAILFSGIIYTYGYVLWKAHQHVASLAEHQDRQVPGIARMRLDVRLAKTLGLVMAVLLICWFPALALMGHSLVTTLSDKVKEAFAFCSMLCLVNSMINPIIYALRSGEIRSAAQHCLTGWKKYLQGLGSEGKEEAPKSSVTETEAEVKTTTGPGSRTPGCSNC

Cannabinoid receptor 1 = Cannabinoid receptor 1 (Rattus norvegicus, UniProt P20272); test: Displacement of [3H]CP-55940 from rat forebrain membrane which expresses Cannabinoid receptor 1 in the presence of PMSF
Chain of Cannabinoid receptor 1 (P20272 whole entry): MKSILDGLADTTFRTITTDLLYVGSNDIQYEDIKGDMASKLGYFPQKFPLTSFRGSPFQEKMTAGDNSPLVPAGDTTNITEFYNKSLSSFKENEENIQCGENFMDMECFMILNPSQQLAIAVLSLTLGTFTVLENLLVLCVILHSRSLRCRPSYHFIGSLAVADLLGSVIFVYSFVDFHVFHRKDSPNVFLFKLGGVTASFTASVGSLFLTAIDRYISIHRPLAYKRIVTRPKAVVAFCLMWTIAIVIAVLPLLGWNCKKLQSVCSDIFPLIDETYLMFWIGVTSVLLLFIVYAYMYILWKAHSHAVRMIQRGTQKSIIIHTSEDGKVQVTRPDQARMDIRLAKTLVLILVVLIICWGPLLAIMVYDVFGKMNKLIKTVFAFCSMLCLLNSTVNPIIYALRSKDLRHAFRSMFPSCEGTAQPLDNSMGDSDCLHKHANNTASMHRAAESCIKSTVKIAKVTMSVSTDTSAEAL

[1] = target: T2, Fatty-acid amide hydrolase 1 (Homo sapiens, UniProt O00519); test: Inhibition of Fatty-acid amide hydrolase (FAAH) activity in human lymphoma U937 cell using [3H]AEA as substrate in the 0-25 uM conc; assay type: cell-based, U-937
T2 sequence (O00519 whole entry): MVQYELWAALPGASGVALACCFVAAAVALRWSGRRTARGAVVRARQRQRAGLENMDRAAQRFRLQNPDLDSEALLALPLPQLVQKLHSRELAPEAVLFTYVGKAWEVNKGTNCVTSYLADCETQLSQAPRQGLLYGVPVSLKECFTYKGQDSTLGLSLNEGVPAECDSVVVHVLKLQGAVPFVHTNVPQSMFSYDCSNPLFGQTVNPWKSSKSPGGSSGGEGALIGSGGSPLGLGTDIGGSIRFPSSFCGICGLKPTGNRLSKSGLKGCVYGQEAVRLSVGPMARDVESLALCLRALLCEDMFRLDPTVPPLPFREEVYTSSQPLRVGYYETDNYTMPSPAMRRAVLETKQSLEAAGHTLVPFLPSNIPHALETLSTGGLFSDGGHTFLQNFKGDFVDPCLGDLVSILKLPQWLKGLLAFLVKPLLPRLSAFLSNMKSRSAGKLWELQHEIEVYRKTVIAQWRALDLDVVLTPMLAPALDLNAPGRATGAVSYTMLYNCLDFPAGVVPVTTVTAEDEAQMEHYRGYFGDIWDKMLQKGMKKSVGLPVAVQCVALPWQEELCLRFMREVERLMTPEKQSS

[2] = Inhibition of N-arachidonoylethanolamine transporter (AEA) activity in human lymphoma U937 cell using [3H]AEA as substrate in the 0-1000 nM conc.; assay type: cell-based; settings: u-937
[3] = target: Cannabinoid receptor (Rattus norvegicus) (UniProt Q9QZN9+P20272); test: Ratio of Ki at CB1 to Ki at CB2 receptors; assay type: protein assay
Chain of Cannabinoid receptor (Rattus norvegicus) (P20272 whole entry, looked up, one chain of several): as the sequence (P20272 whole entry) above

Q: What does the source list for CCCCC[C@@H](O)/C=C/C=C\C/C=C\C/C=C\CCCC(=O)NCCO?
A: Ki (Cannabinoid receptor 2): > 1000 nM; Ki (Cannabinoid receptor 1): 600 nM; Ki [1]: 630 nM; Ki [2]: > 10000 nM; Ratio [3]: < 0.6

Q: Which results are given for CCCCC/C=C\C/C=C\C/C=C\C/C=C\CCCC(=O)OC(CO)CO [2-ARACHIDONOYLGLYCEROL]?
A: Ki (Cannabinoid receptor 2): 100 nM; Ki [1]: 5000 nM; Ki [2]: 3000 nM

Q: With CCCCC[C@H](O)/C=C/C=C\CCCCCCCC(=O)NCCO as the compound, how does the Ki (Cannabinoid receptor 2) read?
A: The Ki was 600 nM.

Q: What about the Ki (Cannabinoid receptor 1) of the same compound?
A: The Ki was greater than 1000 nM.

Q: What about the Ki [1] of the same compound?
A: Its Ki is 430 nM.

Q: What about the Ki [2] of the same compound?
A: The Ki was greater than 10000 nM.

Q: And the Ratio [3]?
A: The Ratio was greater than 1.7.

Q: What does the source list for CCCCC[C@H](O)/C=C/C=C\C=C\[C@@H](O)C/C=C\CCCC(=O)NCCO?
A: Ki (Cannabinoid receptor 2): > 1000 nM; Ki (Cannabinoid receptor 1): > 1000 nM; Ki [1]: 690 nM; Ki [2]: > 10000 nM

Q: Which results are given for CCCCC/C=C\C/C=C\C/C=C\C/C=C\CCCC(=O)OC[C@H](O)CO?
A: Ki (Cannabinoid receptor 2): > 1000 nM; Ki (Cannabinoid receptor 1): > 1000 nM; Ki [1]: 2500 nM; Ki [2]: 10000 nM

Q: For CCCCCC(O)/C=C/C=C\C/C=C\C/C=C\CCCC(=O)NCCO (mixture of isomers), which Ki (Cannabinoid receptor 2) is on record?
A: The Ki was greater than 1000 nM.

Q: What about the Ki (Cannabinoid receptor 1) of the same compound?
A: Its Ki is 680 nM.

Q: And the Ki [1]?
A: Its Ki is 630 nM.

Q: What about the Ki [2] of the same compound?
A: The Ki was greater than 10000 nM.

Q: What about the Ratio [3] of the same compound?
A: Its Ratio is greater than 0.7.

Q: Which Ki (Cannabinoid receptor 2) does the source give for CCCCC/C=C\C=C\C(O)C/C=C\C/C=C\CCCC(=O)NCCO (mixture of isomers) here?
A: Its Ki is greater than 1000 nM.

Q: And the Ki (Cannabinoid receptor 1)?
A: The Ki was greater than 1000 nM.

Q: What about the Ki [1] of the same compound?
A: Its Ki is 690 nM.

Q: And the Ki [2]?
A: The Ki was greater than 10000 nM.

Q: With CCCCC[C@H](O)/C=C/C=C\C/C=C\C/C=C\CCCC(=O)OC[C@@H](O)CO as the compound, how does the Ki (Cannabinoid receptor 2) read?
A: Its Ki is 550 nM.

Q: What about the Ki (Cannabinoid receptor 1) of the same compound?
A: Its Ki is greater than 1000 nM.

Q: And the Ki [1]?
A: Its Ki is 6000 nM.

Q: What about the Ki [2] of the same compound?
A: Its Ki is 9000 nM.

Q: What does the source list for CCCCC/C=C\C[C@@H](O)/C=C/C=C\C/C=C\CCCC(=O)NCCO?
A: Ki (Cannabinoid receptor 2): 500 nM; Ki (Cannabinoid receptor 1): 150 nM; Ki [1]: 2900 nM; Ki [2]: > 10000 nM; Ratio [3]: 0.3

Q: With CCCCC[C@@H](O)/C=C/C=C\C/C=C\C=C\[C@H](O)CCCC(=O)NCCO as the compound, how does the Ki (Cannabinoid receptor 2) read?
A: Its Ki is greater than 1000 nM.

Q: And the Ki (Cannabinoid receptor 1)?
A: Its Ki is greater than 1000 nM.

Q: What about the Ki [1] of the same compound?
A: Its Ki is 1260 nM.

Q: And the Ki [2]?
A: The Ki was greater than 10000 nM.

Q: For CCCCC/C=C\C=C\[C@@H](O)C/C=C\C/C=C\CCCC(=O)NCCO, which Ki (Cannabinoid receptor 2) is on record?
A: The Ki was greater than 1000 nM.

Q: And the Ki (Cannabinoid receptor 1)?
A: Its Ki is greater than 1000 nM.

Q: What about the Ki [1] of the same compound?
A: The Ki was 570 nM.

Q: What about the Ki [2] of the same compound?
A: Its Ki is greater than 10000 nM.

Q: What does the source list for CCCCC/C=C\C/C=C\C/C=C\C/C=C\CCCC(=O)OC[C@@H](O)CO?
A: Ki (Cannabinoid receptor 2): > 1000 nM; Ki (Cannabinoid receptor 1): > 1000 nM; Ki [1]: 3000 nM; Ki [2]: > 10000 nM

Q: With CCCCC[C@H](O)/C=C/C=C\C/C=C\C/C=C\CCCC(=O)OC[C@H](O)CO as the compound, how does the Ki (Cannabinoid receptor 2) read?
A: The Ki was greater than 1000 nM.

Q: What about the Ki (Cannabinoid receptor 1) of the same compound?
A: Its Ki is greater than 1000 nM.

Q: What about the Ki [1] of the same compound?
A: Its Ki is 5000 nM.

Q: And the Ki [2]?
A: Its Ki is 7000 nM.

Q: For CCCCC/C=C\C/C=C\C/C=C\C/C=C\CCCC(=O)NCCO [ANANDAMIDE], which Ki [1] is on record?
A: The Ki was greater than 10000 nM.

Q: And the Ki [2]?
A: The Ki was greater than 10000 nM.
